The values below come from patent publication US20150164884A1, “HCV COMBINATION THERAPY” (Boehringer Ingelheim International GmbH, priority 2009, published 2015).

The nature of series [1]: Solubility of Compound (1) forms in non-aqueous excipients (HPLC of filtrate). Format: physicochemical. Conditions: room temperature, up to 4 days. As for the experimental part:
(§1) The solubility of Compound (1), as either Type A or the sodium salt form, was investigated in various non-aqueous solvents. The solutions were prepared by addition of excess Compound (1) to 0.25 ml to 1.0 ml of excipient in amber screw cap vials with Teflon lined caps. The samples were allowed to rotate at room temperature for up to 4 days. Sampling was done by centrifuging (14,000 rpm on the Eppendorf model 5415C table top centrifuge) and filtering through a 0.45 μm PVDF filter. The filtrate was subject to HPLC analysis for determining the solubility. HPLC analysis was conducted with an to Agilent 1100 using gradient or isocratic conditions. Both methods used acetonitrile/water (each with 0.1% Triflouroacetic Acid) and an ACE C-18 stationary phase with column heating maintained at 40-45° C. The wavelength of detection was set at 220 nm or 264 nm Wet solids were collected and analyzed for form change (stability) by XRPD.

The nature of series [2]: Form change (stability) study of slurried solids by XRPD. To be noted: slurried in either ethanol or propylene glycol. The series is classed as physicochemical. As for the experimental part: as §1
XRPD analyses for the form change studies were conducted on a Bruker AXS X-Ray Powder Diffractometer Model D8 Discover or D8 Advance, available from Bruker AXS, Inc. of Madison, Wis., using CuKα radiation. The tube power was set to either 40 kV and 40 mA or 40 kV and 30 mA. […]

Converted amounts (≈) assume the structure as drawn. Where a name gives a salt, the structure may show the parent alone. Read-outs that look alike come from different tables or passages of the source.

The Solubility is how much of the substance goes into solution per volume.

Turning to `C=C[C@@H]1C[C@]1(NC(=O)[C@@H]1C[C@H](Oc2cc(-c3csc(NC(=O)C(C)C)n3)nc3c(Br)c(OC)ccc23)CN1C(=O)[C@@H](NC(=O)OC1CCCC1)C(C)(C)C)C(=O)O` [Compound (1) Na salt], the Solubility in series [1] (Capmul MCM (non-aqueous excipient), oil or lipid, thermodynamic from solid, excipient Capmul MCM, read-out: Solubility) was 262.5 ± 2.6 mg/mL; in series [1] (Capmul PG8 (non-aqueous excipient), oil or lipid, thermodynamic from solid, excipient Capmul PG8, read-out: Solubility) it was < 169 mg/mL; in series [1] (Labrasol (non-aqueous excipient), oil or lipid, thermodynamic from solid, excipient Labrasol, read-out: Solubility), 175 ± 11.8 mg/mL; in series [1] (PEG 400 (non-aqueous excipient), organic solvent or mixture, thermodynamic from solid, excipient PEG 400, read-out: Solubility), 234 ± 34 mg/mL; in series [1] (excipient Ethanol), 187.0 ± 23.9 mg/mL; in series [1] (excipient Transcutol P), 430.6 ± 14.7 mg/mL. In series [1] (propylene glycol (non-aqueous excipient), organic solvent or mixture, thermodynamic from solid, excipient Propylene Glycol, read-out: Solubility), the Solubility was > 468 mg/mL. For the same molecule, the “Form stability (change in XRPD pattern of remaining solid phase)” value in series [2] (listed as crystalline sodium salt form of Compound (1)) is listed as “no change in the XRPD pattern”.
Take `C=C[C@@H]1C[C@]1(NC(=O)[C@@H]1C[C@H](Oc2cc(-c3csc(NC(=O)C(C)C)n3)nc3c(Br)c(OC)ccc23)CN1C(=O)[C@@H](NC(=O)OC1CCCC1)C(C)(C)C)C(=O)O` [Type A of Compound (1)]: the Solubility in series [1] (excipient Capmul MCM) turned out to be 220.6 ± 7.4 mg/mL (≈ 254 mM); in series [1] (excipient Capmul PG8) it was 172.6 ± 8.3 mg/mL (≈ 198 mM); in series [1] (excipient Ethanol), 0.9 ± 0.1 mg/mL (≈ 1.03 mM); in series [1] (excipient Labrasol), 146.7 ± 5.1 mg/mL (≈ 169 mM); in series [1] (excipient PEG 400), 136.8 ± 3.2 mg/mL (≈ 157 mM); in series [1] (excipient Transcutol P) it was 24.3 ± 0.3 mg/mL (≈ 27.9 mM). Besides, the “Form stability (change in XRPD pattern of remaining solid phase)” value in series [2] (listed as Type A form of Compound (1)) is recorded as “clear form change”.
